In the assay the target is elastase (Sus scrofa, UniProt P00772). Briefly: Elastase inhibition assay (succinyl-L-alanyl-L-alanyl-L-alanyl-p-nitroanilide hydrolysis, 410 nm). Format: biochemical. The method, then:
300 μl (0.6 mg) of succinyl-L-alanyl-L-alanyl-L-alanyl-p-nitroanilide (the enzyme substrate), 1200 μl of buffer and varying amounts of the elastase inhibitor under testing are incubated at 37° C. for 20 minutes. The hydrolysis is measured by the spectrophotometric measurement of the release of p-nitroaniline at a wavelength of 410 nm.
The anti-aging activity of the individual molecules along with different combinations were studied and the results mentioned in Table.2

Sequence of elastase (P00772 27-266): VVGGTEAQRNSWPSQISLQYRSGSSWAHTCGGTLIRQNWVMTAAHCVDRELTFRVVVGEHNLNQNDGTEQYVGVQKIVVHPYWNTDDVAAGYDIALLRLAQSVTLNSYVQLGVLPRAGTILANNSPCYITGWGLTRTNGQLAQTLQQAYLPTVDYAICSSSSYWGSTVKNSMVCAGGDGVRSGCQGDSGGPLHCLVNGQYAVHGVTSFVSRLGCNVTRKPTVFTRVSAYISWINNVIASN

As to `O=C(OC[C@H]1O[C@@H](OC(=O)c2cc(O)c(O)c(O)c2)[C@H](OC(=O)c2cc(O)c(O)c(O)c2)[C@@H](OC(=O)c2cc(O)c(O)c(O)c2)[C@@H]1OC(=O)c1cc(O)c(O)c(O)c1)c1cc(O)c(O)c(O)c1` [Formula 3, pentagalloyl glucose], the Inhibition (at 70 μg/ml) amounted to 56.6% at 70 μg/ml. The “% Inhibition” value (synergistic studies, ratio Pentagalloyl glucose:Methyl gallate, concentration not given) was 49%.

These data come from patent US20110135772A1, “SKIN CARE AGENT AND COMPOSITIONS THEREOF” (priority 2009, published 2011).
